Laboratory results taken from US11780821B2, “Inhibitors of fibroblast activation protein” (Praxis Biotech LLC, priority 2017, dated 2023).
Where a name gives a salt, the structure may show the parent alone. Read-outs that look alike come from different tables or passages of the source.

What was measured:
Assay type in all cases: biochemical
[1] = target: T1, recombinant human FAPα (rhFAPα) (Homo sapiens, UniProt Q12884); assay: FAPα enzymatic exopeptidase (dipeptidase) activity assay; settings: for inhibition at 1 µM: 1 μM test compound, Z-Gly-Pro-AMC substrate, read-out: rhFAPα (% exo inh @ 1 μM); for IC50: exopeptidase, read-out: rhFAPα (exo IC50)
T1 construct: purchased R&S system (so in the source)
T1 sequence (Q12884 1-760): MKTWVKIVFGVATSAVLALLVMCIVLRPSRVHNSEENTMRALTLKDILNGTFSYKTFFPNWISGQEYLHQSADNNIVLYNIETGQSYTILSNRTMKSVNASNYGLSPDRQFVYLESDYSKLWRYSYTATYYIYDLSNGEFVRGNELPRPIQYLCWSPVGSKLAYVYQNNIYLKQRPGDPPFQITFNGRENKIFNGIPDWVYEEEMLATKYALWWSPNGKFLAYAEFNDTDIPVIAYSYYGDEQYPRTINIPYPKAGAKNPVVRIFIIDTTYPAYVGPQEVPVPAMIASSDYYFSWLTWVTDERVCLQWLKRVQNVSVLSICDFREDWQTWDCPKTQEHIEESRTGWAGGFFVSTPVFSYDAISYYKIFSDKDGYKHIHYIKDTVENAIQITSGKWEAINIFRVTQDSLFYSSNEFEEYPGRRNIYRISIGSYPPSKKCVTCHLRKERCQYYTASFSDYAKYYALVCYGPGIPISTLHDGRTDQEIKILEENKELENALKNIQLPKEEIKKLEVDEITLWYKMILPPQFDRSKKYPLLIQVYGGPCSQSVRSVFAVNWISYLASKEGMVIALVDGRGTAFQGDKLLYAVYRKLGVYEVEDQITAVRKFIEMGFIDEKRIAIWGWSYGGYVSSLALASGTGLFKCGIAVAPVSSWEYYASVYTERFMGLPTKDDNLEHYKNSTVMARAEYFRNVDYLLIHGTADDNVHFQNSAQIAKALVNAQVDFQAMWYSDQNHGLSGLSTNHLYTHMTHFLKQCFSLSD

[2] = target: T2, recombinant human DPP9 (rhDPP9) (Homo sapiens, UniProt Q86TI2); assay: DPP9 enzymatic activity assay; settings: H-Gly-Pro-AMC substrate
T2 construct: purchased R&S system (so in the source)
T2 sequence (Q86TI2 whole entry): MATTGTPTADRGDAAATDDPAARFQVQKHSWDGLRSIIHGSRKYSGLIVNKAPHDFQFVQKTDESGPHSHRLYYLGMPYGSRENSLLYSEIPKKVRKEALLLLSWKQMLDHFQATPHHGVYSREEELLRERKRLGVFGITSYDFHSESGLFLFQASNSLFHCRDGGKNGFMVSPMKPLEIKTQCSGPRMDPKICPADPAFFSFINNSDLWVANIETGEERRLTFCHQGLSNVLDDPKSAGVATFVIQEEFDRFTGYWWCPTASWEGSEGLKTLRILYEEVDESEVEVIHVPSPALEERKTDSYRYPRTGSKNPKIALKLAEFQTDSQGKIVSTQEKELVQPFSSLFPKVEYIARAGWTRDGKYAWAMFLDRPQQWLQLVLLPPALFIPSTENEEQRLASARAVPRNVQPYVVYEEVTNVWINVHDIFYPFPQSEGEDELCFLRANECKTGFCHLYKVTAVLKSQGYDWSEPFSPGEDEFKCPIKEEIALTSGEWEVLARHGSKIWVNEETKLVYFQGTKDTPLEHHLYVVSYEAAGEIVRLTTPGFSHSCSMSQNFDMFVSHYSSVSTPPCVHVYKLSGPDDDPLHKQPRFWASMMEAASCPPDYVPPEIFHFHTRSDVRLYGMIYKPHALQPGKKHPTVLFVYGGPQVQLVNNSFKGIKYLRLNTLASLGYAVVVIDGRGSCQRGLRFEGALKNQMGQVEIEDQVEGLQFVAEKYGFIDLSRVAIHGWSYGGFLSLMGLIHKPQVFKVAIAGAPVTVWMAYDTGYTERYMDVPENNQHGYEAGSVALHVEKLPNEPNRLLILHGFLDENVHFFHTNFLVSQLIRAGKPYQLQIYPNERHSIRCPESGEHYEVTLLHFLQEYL
Description: (§1) 7-Amino-4-Methylcoumarin (AMC) release was detected by measuring fluorescence at Ex/Em 380/460 nm using a Multifunction Microplate Reader (Synergy 4, Biotek). All measurements were carried out in triplicate.

[3] = target: T3, recombinant human DPPIV (rhDPPIV) (Homo sapiens, UniProt P27487); assay: DPPIV enzymatic activity assay; settings: H-Gly-Pro-pNA substrate
T3 construct: purchased R&S system (so in the source)
T3 sequence (P27487 whole entry): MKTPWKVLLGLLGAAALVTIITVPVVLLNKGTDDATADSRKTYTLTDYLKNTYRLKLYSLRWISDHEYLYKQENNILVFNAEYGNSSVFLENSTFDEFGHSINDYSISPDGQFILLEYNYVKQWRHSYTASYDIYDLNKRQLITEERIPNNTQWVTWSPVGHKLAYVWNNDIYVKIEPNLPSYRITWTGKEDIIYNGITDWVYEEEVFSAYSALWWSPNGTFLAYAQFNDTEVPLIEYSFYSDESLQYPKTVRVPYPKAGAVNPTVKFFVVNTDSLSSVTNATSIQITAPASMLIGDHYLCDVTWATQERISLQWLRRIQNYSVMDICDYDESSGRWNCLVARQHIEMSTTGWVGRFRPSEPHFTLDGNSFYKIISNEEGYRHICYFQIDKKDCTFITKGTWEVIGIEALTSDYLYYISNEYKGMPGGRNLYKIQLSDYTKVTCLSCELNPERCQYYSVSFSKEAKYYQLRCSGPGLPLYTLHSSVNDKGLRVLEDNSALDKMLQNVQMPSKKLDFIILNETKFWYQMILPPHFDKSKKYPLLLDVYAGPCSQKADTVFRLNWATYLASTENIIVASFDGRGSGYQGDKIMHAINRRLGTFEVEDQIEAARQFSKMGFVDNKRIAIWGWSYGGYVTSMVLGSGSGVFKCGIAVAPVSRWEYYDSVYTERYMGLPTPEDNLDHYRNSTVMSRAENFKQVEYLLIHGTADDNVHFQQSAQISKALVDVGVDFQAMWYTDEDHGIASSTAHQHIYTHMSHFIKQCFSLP

[4] = target: T4, recombinant human PREP (rhPREP) (Homo sapiens, UniProt P48147); assay: PREP enzymatic activity assay; settings: Z-Gly-Pro-AMC substrate
T4 sequence (P48147 1-710): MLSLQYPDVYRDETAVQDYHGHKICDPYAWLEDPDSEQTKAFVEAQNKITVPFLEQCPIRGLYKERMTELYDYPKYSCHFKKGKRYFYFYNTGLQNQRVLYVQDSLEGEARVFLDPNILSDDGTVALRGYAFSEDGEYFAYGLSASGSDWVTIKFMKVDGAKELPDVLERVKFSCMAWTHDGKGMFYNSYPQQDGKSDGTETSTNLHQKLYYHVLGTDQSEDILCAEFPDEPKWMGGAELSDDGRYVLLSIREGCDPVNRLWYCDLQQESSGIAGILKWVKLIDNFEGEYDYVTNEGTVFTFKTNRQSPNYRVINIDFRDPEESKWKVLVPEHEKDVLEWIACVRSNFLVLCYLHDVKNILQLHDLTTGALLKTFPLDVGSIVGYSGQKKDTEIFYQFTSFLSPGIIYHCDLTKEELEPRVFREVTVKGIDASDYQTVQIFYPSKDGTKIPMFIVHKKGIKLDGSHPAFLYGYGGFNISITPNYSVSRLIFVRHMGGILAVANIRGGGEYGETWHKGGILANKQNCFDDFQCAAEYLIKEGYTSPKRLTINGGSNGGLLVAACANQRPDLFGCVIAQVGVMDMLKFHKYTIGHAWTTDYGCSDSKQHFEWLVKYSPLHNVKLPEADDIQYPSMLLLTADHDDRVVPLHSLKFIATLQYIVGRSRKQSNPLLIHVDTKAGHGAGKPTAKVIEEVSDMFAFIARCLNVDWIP
Description: as §1

SMILES | inhibition at 1 µM [1] [%] | IC50 ([1]; Table 2, Z-Gly-Pro-AMC) [nM] | IC50 ([1]; Table 3) [nM] | IC50 [2] [µM] | IC50 [3] [µM] | IC50 [4] [µM]
Cn1ccc2c(-c3cnccc3C(=O)NCC(=O)N3CC(F)(F)C[C@H]3C#N)cccc21 [Compound 66, (S)—N-(2-(2-cyano-4,4-difluoropyrrolidin-1-yl)-2-oxoethyl)-3-(1-methyl-1H-indol-4-yl)isonicotinamide] | > 50 | < 1000 | < 1000 | > 10 | > 10 | > 10
N#C[C@@H]1CC(F)(F)CN1C(=O)CNC(=O)c1ccncc1Oc1ccccc1 [Compound 97, (S)—N-(2-(2-cyano-4,4-difluoropyrrolidin-1-yl)-2-oxoethyl)-3-phenoxyisonicotinamide] | > 50 | < 1000 | < 1000 | > 10 | > 10 | > 10
N#C[C@@H]1CC(F)(F)CN1C(=O)CNC(=O)c1ccncc1Nc1ccccc1 [Compound 102] | > 50 | < 1000 | < 1000 | > 10 | > 10 | > 10
N#C[C@@H]1CC(F)(F)CN1C(=O)CNC(=O)c1ccncc1-c1ccc2c(c1)CCN2 [Compound 104, (S)—N-(2-(2-cyano-4,4-difluoropyrrolidin-1-yl)-2-oxoethyl)-3-(indolin-5-yl)isonicotinamide] | > 50 | < 1000 | < 1000 | > 10 | > 10 | > 10
Cc1ccc(-c2cnccc2C(=O)NCC(=O)N2CC(F)(F)C[C@H]2C#N)o1 [Compound 106, (S)—N-(2-(2-cyano-4,4-difluoropyrrolidin-1-yl)-2-oxoethyl)-3-(5-methylfuran-2-yl)isonicotinamide] | > 50 | < 1000 | < 1000 | > 10 | > 10 | > 10
N#C[C@@H]1CC(F)(F)CN1C(=O)CNC(=O)c1ccncc1-c1ccc(N)nc1 [Compound 107, (S)-6′-amino-N-(2-(2-cyano-4,4-difluoropyrrolidin-1-yl)-2-oxoethyl)-[3,3′-bipyridine]-4-carboxamide formate] | > 50 | < 1000 | < 1000 | 1 to 10 | 1 to 10 | > 10
Cc1noc(C)c1-c1cnccc1C(=O)NCC(=O)N1CC(F)(F)C[C@H]1C#N [Compound 110, (S)—N-(2-(2-cyano-4,4-difluoropyrrolidin-1-yl)-2-oxoethyl)-3-(3,5-dimethylisoxazol-4-yl)isonicotinamide] | > 50 | < 1000 | < 1000 | > 10 | > 10 | > 10
CC(C)(C)c1cccc(-c2cnccc2C(=O)NCC(=O)N2CC(F)(F)C[C@H]2C#N)c1 [Compound 112, (S)-3-(3-(tert-butyl)phenyl)-N-(2-(2-cyano-4,4-difluoropyrrolidin-1-yl)-2-oxoethyl)isonicotinamide] | > 50 | < 1000 | < 1000 | > 10 | > 10 | > 10
CCOc1cnccc1C(=O)NCC(=O)N1CC(F)(F)C[C@H]1C#N [Compound 113, (S)—N-(2-(2-cyano-4,4-difluoropyrrolidin-1-yl)-2-oxoethyl)-3-ethoxyisonicotinamide] | > 50 | < 1000 | < 1000 | > 10 | > 10 | > 10
N#C[C@@H]1CC(F)(F)CN1C(=O)CNC(=O)c1ccncc1Nc1ccc(F)cc1 [Compound 114, (S)—N-(2-(2-cyano-4,4-difluoropyrrolidin-1-yl)-2-oxoethyl)-3-((4-fluorophenyl)amino)isonicotinamide 2,2,2-trifluoroacetate] | > 50 | < 1000 | < 1000 | > 10 | > 10 | > 10
N#C[C@@H]1CC(F)(F)CN1C(=O)CNC(=O)c1ccncc1Sc1ccccc1 [Compound 115, (S)—N-(2-(2-cyano-4,4-difluoropyrrolidin-1-yl)-2-oxoethyl)-3-(phenylthio)isonicotinamide] | > 50 | < 1000 | < 1000 | > 10 | > 10 | 1 to 10
N#C[C@@H]1CC(F)(F)CN1C(=O)CNC(=O)c1c[nH]c(=O)cc1-c1ccnc2ccccc12 [Compound 116, (S)—N-(2-(2-cyano-4,4-difluoropyrrolidin-1-yl)-2-oxoethyl)-6-oxo-4-(quinolin-4-yl)-1,6-dihydropyridine-3-carboxamide] | > 50 | < 1000 | < 1000 | > 10 | 1 to 10 | > 10
N#C[C@@H]1CC(F)(F)CN1C(=O)CNC(=O)c1ccncc1Nc1cccnc1 [Compound 117, (S)—N-(2-(2-cyano-4,4-difluoropyrrolidin-1-yl)-2-oxoethyl)-3-(pyridin-3-ylamino)isonicotinamide] | > 50 | < 1000 | < 1000 | > 10 | > 10 | 1 to 10
N#C[C@@H]1CC(F)(F)CN1C(=O)CNC(=O)c1ccncc1NC1CCNCC1 [Compound 118, (S)—N-(2-(2-cyano-4,4-difluoropyrrolidin-1-yl)-2-oxoethyl)-3-(piperidin-4-ylamino)isonicotinamide] | > 50 | < 1000 | < 1000 | > 10 | > 10 | > 10
N#C[C@@H]1CC(F)(F)CN1C(=O)CNC(=O)c1ccncc1Nc1ccnc2ccccc12 [Compound 119, (S)—N-(2-(2-cyano-4,4-difluoropyrrolidin-1-yl)-2-oxoethyl)-3-(quinolin-4-ylamino)isonicotinamide] | > 50 | < 1000 | < 1000 | > 10 | > 10 | > 10
N#C[C@@H]1CC(F)(F)CN1C(=O)CNC(=O)c1ccncc1N1CCC(N)CC1 [Compound 120, (S)-3-(4-aminopiperidin-1-yl)-N-(2-(2-cyano-4,4-difluoropyrrolidin-1-yl)-2-oxoethyl)isonicotinamide 2,2,2-trifluoroacetate] | > 50 | < 1000 | < 1000 | > 10 | 1 to 10 | > 10
N#C[C@@H]1CC(F)(F)CN1C(=O)CNC(=O)c1ccncc1Oc1ccc(F)cc1 [compound 35] | > 50 | < 1000 | – | > 10 | > 10 | > 10
